From patent US20240327381A1, “Compounds and Compositions for Selective Degradation of Engineered Proteins” (Celgene Corporation, priority 2023, published 2024)
Where two headings read alike, the source gives them in different places.

How the values were obtained:
[1] = target: T1, IKZF1 ZNF2_ZNF3 Q1F degron-tagged CD19 CAR (Homo sapiens, UniProt Q13422, Q146F); experiment: Degradation of Q1F degron-tagged CD19 CAR in Jurkat cells (flow cytometry of CAR levels); format: cell-based; conditions: for DC50: Jurkat cells expressing CD19 CAR tagged with IKZF1 ZNF2_ZNF3 Q1F, 18 hours at 37° C., CAR levels normalized to untreated cells, read-out: Q1F Jurkat IC50; for Dmax: read-out: Q1F Jurkat-YMax
T1 construct: ZNF2_ZNF3 Q1F degron (GERPFFCNQCGASFTQKGNLLRHIKLHSGEKPFKCHLCNYACRRRDALTGHLRTHS); fused on or other part: anti-CD19 scFv, CD28 transmembrane domain, 4-1BB costimulatory domain, CD3 zeta signaling domain (the CAR that carries the degron), and Nluc
Method in brief: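 Jurkat cells were lentivirally transduced with an anti-CD19 scFv/CD28 TM/4-1BB/CD3ζ CAR tagged with an IKZF1 ZNF2_ZNF3 Q1F degron–Nluc, then treated with compound titrations for 18 h at 37 °C. CAR surface levels were stained (20 min, 4 °C), read by flow cytometry and normalised to untreated cells. EC50 came from a four-parameter logistic fit; Ymin is the minimum % CAR remaining.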

[2] = target: T2, Helios (Homo sapiens, UniProt Q9UKS7); experiment: Helios degradation in Jurkat/Helios/HiBit cells (Nano-Glo luminescence); format: cell-based; conditions: 18 hr, read-out: Helios Jurkat Hibit IC50
T2 construct: endogenous in cells; host or cells: Jurkat cells, CRISPR/Cas9 knock-in of HiBit at the IKZF2 locus
Method in brief: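 Jurkat cells carrying CRISPR-knocked-in C-terminal HiBit-tagged endogenous IKZF2 were treated with compound in DMEM/10% FCS (10,000 cells/well) for 18 h at 37 °C. HiBit signal was read by Nano-Glo luminescence after 30 min at RT. EC50 for degradation came from a four-parameter logistic fit, with Ymax as % protein degraded.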

[3] = Ymax is the % protein degraded, Jurkat cells expressing Q1F degron-tagged CD19 CAR, 18 hours

T2 sequence (Q9UKS7 whole entry): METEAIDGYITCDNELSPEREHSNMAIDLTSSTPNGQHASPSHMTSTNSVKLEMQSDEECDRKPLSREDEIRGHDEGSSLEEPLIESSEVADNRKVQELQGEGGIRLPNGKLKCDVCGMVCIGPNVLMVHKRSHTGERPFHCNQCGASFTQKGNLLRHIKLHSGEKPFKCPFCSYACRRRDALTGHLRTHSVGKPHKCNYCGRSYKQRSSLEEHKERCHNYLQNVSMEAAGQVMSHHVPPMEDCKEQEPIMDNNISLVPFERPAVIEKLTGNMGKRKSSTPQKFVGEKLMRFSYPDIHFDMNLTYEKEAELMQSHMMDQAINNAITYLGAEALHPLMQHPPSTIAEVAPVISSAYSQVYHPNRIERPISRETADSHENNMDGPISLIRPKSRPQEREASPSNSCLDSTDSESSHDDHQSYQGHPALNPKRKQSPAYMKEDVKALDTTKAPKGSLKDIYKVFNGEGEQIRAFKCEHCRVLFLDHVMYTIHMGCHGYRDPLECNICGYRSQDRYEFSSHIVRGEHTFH
T2 sequence (Q96SW2 whole entry, further chain): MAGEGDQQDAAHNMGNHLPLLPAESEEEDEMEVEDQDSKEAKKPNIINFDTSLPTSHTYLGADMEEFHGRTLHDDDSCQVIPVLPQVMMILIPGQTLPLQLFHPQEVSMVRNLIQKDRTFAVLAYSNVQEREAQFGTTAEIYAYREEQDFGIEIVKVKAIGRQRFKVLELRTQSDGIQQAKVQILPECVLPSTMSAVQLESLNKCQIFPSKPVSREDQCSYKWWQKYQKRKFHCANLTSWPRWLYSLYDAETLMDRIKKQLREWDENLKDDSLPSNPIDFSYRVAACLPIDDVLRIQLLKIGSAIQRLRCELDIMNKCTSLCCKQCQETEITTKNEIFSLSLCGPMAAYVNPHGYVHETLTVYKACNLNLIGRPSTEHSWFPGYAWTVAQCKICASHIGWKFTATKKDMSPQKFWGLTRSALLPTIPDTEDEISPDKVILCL
T2 sequence (Q16531 whole entry partner): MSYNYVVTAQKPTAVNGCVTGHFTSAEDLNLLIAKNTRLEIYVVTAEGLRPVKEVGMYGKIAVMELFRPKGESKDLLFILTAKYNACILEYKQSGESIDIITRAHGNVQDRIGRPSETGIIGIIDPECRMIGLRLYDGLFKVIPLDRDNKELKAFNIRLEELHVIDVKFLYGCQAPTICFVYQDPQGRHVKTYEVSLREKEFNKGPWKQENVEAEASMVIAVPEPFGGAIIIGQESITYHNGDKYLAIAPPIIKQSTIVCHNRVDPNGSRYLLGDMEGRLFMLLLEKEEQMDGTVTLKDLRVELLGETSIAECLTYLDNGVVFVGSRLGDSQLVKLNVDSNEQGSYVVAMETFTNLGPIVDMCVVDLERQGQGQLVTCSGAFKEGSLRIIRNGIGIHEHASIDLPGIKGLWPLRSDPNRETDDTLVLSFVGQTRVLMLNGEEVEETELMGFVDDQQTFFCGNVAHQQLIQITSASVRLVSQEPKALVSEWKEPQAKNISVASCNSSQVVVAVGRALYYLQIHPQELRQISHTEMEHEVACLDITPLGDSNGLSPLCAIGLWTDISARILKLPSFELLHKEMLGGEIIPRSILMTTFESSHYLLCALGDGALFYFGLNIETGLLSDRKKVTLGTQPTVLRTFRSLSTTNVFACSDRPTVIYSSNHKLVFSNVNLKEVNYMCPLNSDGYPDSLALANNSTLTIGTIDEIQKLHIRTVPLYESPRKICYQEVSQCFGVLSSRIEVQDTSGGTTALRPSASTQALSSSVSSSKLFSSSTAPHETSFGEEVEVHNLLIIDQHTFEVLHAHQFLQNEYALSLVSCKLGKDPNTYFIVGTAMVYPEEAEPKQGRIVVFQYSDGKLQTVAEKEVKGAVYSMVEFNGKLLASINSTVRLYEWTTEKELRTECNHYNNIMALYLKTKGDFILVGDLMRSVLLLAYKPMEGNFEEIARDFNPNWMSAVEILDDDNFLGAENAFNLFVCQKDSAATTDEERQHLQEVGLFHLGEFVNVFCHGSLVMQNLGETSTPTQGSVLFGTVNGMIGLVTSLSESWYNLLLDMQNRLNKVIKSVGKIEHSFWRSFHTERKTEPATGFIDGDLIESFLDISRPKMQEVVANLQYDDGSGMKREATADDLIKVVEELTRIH
T1 sequence (Q13422 whole entry Q146F, the tested form may be a part): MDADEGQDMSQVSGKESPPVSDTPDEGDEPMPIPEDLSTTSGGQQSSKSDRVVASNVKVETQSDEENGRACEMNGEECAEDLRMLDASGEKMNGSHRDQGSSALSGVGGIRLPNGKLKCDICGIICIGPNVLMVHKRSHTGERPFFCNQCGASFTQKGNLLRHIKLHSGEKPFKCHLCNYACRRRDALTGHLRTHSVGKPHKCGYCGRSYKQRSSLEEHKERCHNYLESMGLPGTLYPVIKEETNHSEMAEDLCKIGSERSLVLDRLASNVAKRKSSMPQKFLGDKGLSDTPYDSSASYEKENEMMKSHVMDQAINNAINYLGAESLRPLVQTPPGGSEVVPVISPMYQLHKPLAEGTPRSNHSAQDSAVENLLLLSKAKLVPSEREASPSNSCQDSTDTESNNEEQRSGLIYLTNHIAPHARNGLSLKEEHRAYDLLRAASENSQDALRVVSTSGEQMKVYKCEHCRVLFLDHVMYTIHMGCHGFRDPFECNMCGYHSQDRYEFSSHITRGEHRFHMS

O=C1CCC(N2Cc3c(cc(F)c(C4CCN(CC5CCCCC5)CC4)c3F)C2=O)C(=O)N1 (stereo not drawn) [Compound 67, 3-(5-(1-(cyclohexylmethyl)piperidin-4-yl)-4,6-difluoro-1-oxoisoindolin-2-yl)piperidine-2,6-dione]
DC50 [1]: 0.563 nM | Dmax [1, 3]: 89% | DC50 [2]: ≥ 10000 nM

Cc1cc(Br)cnc1CN1CCCC(c2c(F)cc3c(c2F)CN(C2CCC(=O)NC2=O)C3=O)C1 (stereo not drawn) [Compound 68, 3-(5-(1-((5-bromo-3-methylpyridin-2-yl)methyl)piperidin-3-yl)-4,6-difluoro-1-oxoisoindolin-2-yl)piperidine-2,6-dione]
DC50 [1]: 50.5 nM | Dmax [1, 3]: 63.5% | DC50 [2]: ≥ 10000 nM

O=C1CCC(N2Cc3c(cc(F)c(CNC(=O)c4cc5ccccn5c4)c3F)C2=O)C(=O)N1 (stereo not drawn) [Compound 69, N-[[2-(2,6-dioxo-3-piperidyl)-4,6-difluoro-1-oxo-isoindolin-5-yl]methyl]indolizine-2-carboxamide]
DC50 [1]: 35.2 nM | Dmax [1, 3]: 53.9% | DC50 [2]: ≥ 10000 nM

N#Cc1ccc2c(c1)CN(C(=O)c1c(F)cc3c(c1F)CN(C1CCC(=O)NC1=O)C3=O)CC2 (stereo not drawn) [Compound 70, 2-[2-(2,6-dioxo-3-piperidyl)-4,6-difluoro-1-oxo-isoindoline-5-carbonyl]-3,4-dihydro-1H-isoquinoline-7-carbonitrile]
DC50 [1]: 15 nM | Dmax ([1]; Jurkat, 18 h): 95.5% | DC50 [2]: ≥ 10000 nM

O=C1CCC(N2Cc3c(cc(F)c(C(=O)N4CCc5c(Cl)cccc5C4)c3F)C2=O)C(=O)N1 (stereo not drawn) [Compound 71, 3-[5-(5-chloro-3,4-dihydro-1H-isoquinoline-2-carbonyl)-4,6-difluoro-1-oxo-isoindolin-2-yl]piperidine-2,6-dione]
DC50 [1]: 23.7 nM | Dmax [1, 3]: 95.7% | DC50 [2]: ≥ 10000 nM

O=C1CCC(N2Cc3c(cc(F)c(C(=O)N4CCc5cc(F)c(F)cc5C4)c3F)C2=O)C(=O)N1 (stereo not drawn) [Compound 72, 3-[5-(6,7-difluoro-3,4-dihydro-1H-isoquinoline-2-carbonyl)-4,6-difluoro-1-oxo-isoindolin-2-yl]piperidine-2,6-dione]
DC50 [1]: 21.2 nM | Dmax [1, 3]: 92.5% | DC50 [2]: ≥ 10000 nM

CNc1ccc2c(n1)CN(C(=O)c1c(F)cc3c(c1F)CN(C1CCC(=O)NC1=O)C3=O)C2 (stereo not drawn) [Compound 73, 3-[4,6-difluoro-5-[2-(methylamino)-5,7-dihydropyrrolo[3,4-b]pyridine-6-carbonyl]-1-oxo-isoindolin-2-yl]piperidine-2,6-dione]
DC50 [1]: 3.11 nM | Dmax ([1]; Jurkat, 18 h): 95.3% | DC50 [2]: ≥ 10000 nM

O=C1CCC(N2Cc3c(cc(F)c(C(=O)Nc4nccn4C4CCC4)c3F)C2=O)C(=O)N1 (stereo not drawn) [Compound 74, N-(1-cyclobutyl-1H-imidazol-2-yl)-2-(2,6-dioxopiperidin-3-yl)-4,6-difluoro-1-oxoisoindoline-5-carboxamide]
DC50 [1]: 108 nM | Dmax [1, 3]: 74.9% | DC50 [2]: ≥ 10000 nM

O=C1CCC(N2Cc3c(cc(F)c(C(=O)N4Cc5cccnc5C4)c3F)C2=O)C(=O)N1 (stereo not drawn) [Compound 77, 3-(5-(6,7-dihydro-5H-pyrrolo[3,4-b]pyridine-6-carbonyl)-4,6-difluoro-1-oxoisoindolin-2-yl)piperidine-2,6-dione]
DC50 [1]: 14.8 nM | Dmax [1, 3]: 94.8% | DC50 [2]: ≥ 10000 nM

O=C1CCC(N2Cc3c(cc(F)c(CNC(=O)C4CCC(C(F)(F)F)CC4)c3F)C2=O)C(=O)N1 (stereo not drawn) [Compound 78, N-((2-(2,6-dioxopiperidin-3-yl)-4,6-difluoro-1-oxoisoindolin-5-yl)methyl)-4-(trifluoromethyl)cyclohexane-1-carboxamide]
DC50 [1]: 24.5 nM | Dmax [1, 3]: 61.7% | DC50 [2]: ≥ 10000 nM

O=C1CCC(N2Cc3c(cc(F)c(CNCc4ccc(C(F)F)cc4)c3F)C2=O)C(=O)N1 (stereo not drawn) [Compound 79, 3-(5-(((4-(difluoromethyl)benzyl)amino)methyl)-4,6-difluoro-1-oxoisoindolin-2-yl)piperidine-2,6-dione]
DC50 [1]: 162 nM | Dmax [1, 3]: 60% | DC50 [2]: ≥ 10000 nM
